Entries after “also recorded” stand apart in the source; their conditions may differ.
What was measured:
HDAC1 = HDAC1 (Homo sapiens, UniProt Q13547); assay: HDAC enzyme activity in vitro; format: biochemical
[1] = Bone marrow micronucleus test; format: in vivo, NIH mice; conditions: 20, 40, 60, 80 mg/kg i.v. daily for 3 days
Protocol: In this experiment, 90 SPF-grade NIH mice (half male and half female) were randomly divided into 7 groups: a negative control group (0.9% sodium chloride injection, intravenous injection, 10 mL/kg), an excipient control group (blank formulation, intravenous injection, 10 mL/kg), a positive control group (cyclophosphamide 40 mg/kg, intraperitoneal injection, 10 mL/kg), and four groups for intravenous injection of Purinostat Mesylate at low, medium, high, and highest doses (20, 40, 60, and 80 mg/kg, intravenous injection, 10 mL/kg). The negative control and positive control groups each consisted of 20 mice, while the other groups each consisted of 10 mice, with an equal number of males and females. Mice in each group were administered the specified doses once daily for 3 consecutive days, while the positive control group received only a single dose. Twenty to twenty-four hours after the last administration, all mice in each group were euthanized, and femoral bone marrow smears were prepared. The smears were stained with Giemsa and observed under an oil immersion microscope. For each mouse, 4000 polychromatic erythrocytes (PCEs) were counted to calculate the micronucleus incidence (‰), while 500 bone marrow erythrocytes were counted to determine the ratio of polychromatic erythrocytes to total erythrocytes.

HDAC5 = HDAC5 (Homo sapiens, UniProt Q9UQL6); assay: HDAC enzyme activity in vitro; format: biochemical
Chain of HDAC5 (Q9UQL6 whole entry): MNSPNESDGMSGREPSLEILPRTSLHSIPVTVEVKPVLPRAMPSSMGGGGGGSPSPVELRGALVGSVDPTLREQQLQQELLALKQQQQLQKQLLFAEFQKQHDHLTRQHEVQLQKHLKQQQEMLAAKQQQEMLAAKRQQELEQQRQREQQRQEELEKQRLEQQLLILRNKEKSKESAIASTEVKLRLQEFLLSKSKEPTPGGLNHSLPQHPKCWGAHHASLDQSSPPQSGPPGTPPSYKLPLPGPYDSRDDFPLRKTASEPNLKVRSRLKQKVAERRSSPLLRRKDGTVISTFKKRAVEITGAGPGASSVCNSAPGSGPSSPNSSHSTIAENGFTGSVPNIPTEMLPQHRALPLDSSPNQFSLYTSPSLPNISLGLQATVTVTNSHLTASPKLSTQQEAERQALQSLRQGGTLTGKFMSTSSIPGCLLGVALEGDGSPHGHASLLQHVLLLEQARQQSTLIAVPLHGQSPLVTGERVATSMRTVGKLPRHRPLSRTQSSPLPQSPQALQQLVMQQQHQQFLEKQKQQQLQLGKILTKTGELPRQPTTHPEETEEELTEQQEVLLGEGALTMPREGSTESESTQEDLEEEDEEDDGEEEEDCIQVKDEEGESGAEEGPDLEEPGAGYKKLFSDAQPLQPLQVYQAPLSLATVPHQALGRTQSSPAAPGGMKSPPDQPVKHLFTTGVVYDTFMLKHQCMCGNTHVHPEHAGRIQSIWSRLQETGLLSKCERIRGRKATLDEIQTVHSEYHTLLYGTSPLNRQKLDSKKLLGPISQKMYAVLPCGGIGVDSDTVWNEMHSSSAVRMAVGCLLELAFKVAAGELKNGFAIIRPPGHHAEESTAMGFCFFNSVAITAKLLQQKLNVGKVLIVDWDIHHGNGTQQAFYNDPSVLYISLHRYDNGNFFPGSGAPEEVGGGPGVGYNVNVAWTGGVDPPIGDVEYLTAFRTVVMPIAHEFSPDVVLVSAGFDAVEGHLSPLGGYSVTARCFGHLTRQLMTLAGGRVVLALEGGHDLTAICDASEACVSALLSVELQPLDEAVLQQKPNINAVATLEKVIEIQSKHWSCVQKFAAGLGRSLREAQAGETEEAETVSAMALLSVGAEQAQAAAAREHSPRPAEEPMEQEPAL

[2] = Phase I trial NCT05526313, safety and tolerability (adverse events, CTCAE 5.0)

Chain of HDAC1 (Q13547 whole entry): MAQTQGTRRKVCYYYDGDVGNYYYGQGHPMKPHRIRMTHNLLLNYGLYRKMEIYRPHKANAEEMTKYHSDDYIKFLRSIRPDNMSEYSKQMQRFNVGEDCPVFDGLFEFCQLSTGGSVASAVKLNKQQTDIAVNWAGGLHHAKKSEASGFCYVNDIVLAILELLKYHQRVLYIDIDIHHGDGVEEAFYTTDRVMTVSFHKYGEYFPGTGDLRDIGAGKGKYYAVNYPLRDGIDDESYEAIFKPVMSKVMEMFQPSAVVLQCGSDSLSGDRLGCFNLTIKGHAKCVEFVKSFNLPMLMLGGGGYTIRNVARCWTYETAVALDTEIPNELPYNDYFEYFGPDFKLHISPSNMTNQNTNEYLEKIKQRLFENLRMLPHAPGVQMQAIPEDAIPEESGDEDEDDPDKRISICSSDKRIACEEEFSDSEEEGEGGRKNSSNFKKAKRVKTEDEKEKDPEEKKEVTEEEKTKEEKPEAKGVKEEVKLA

## CN(Cc1nc2c(N3CCOCC3)nc(-c3ccc(N)cc3)nc2n1C)c1ncc(C(=O)NO)cn1.CS(=O)(=O)O [PM, 2-(((2-(4-Aminophenyl)-9-methyl-6-(4-morpholinyl)-9H-purine-8-yl)methyl)methylamino)-N-hydroxy-5-pyrimidine-carboxamide Mesylate]
HDAC1
  IC50: 0.81 nM
[1]
  bone marrow micronucleus test result: negative
HDAC5
  IC50: 426 nM
[2]; 1.2–15 mg/m^2
  dose-limiting toxicity (DLT): no dose-limiting toxicities observed; also recorded: no dose-limiting toxicity (DLT) events occurred; also recorded: no arrhythmias or DLT were observed
[2]; 29 treated patients
  grade 5 events: no grade 5 events reported
  patients with grade 3–4 TEAEs: 25 (86.2%) n (%)
[2]; […]
  COVID-19: 1(3.4) n (%)
  Investigations (SOC): 29(100.0) n (%)
  QRS axis abnormalities: 1(3.4) n (%)
  ST segment abnormalities on ECG: 5(17.2) n (%)
  ST-T segment changes on ECG: 9(31.0) n (%)
  T wave abnormalities on ECG: 9(31.0) n (%)
  abdominal discomfort: 1(3.4) n (%)
  abdominal distension: 4(13.8) n (%)
  abdominal pain: 2(6.9) n (%)
  abnormal liver function: 1(3.4) n (%)
  alopecia: 1(3.4) n (%)
  anemia: 20(69.0) n (%)
  angular cheilitis: 1(3.4) n (%)
  appendicitis: 1(3.4) n (%)
  arrhythmia: 1(3.4) n (%)
  arthralgia: 3(10.3) n (%)
  atrial tachycardia: 1(3.4) n (%)
  backache: 1(3.4) n (%)
  bacteremia: 1(3.4) n (%)
  belching: 1(3.4) n (%)
  bleeding gums: 1(3.4) n (%)
  blood and lymphatic system diseases (SOC): 20(69.0) n (%)
  chill: 1(3.4) n (%)
  conjunctival bleeding: 1(3.4) n (%)
  constipation: 1(3.4) n (%)
  cough: 1(3.4) n (%)
  decreased blood fibrinogen: 1(3.4) n (%)
  decreased lymphocyte count: 16(55.2) n (%)
  decreased monocyte count: 2(6.9) n (%)
  decreased neutrophil count: 25(86.2) n (%)
  decreased platelet count: 24(82.8) n (%)
  decreased white blood cell count: 24(82.8) n (%)
  diarrhea: 4(13.8) n (%)
  dizziness: 13(44.8) n (%)
  duodenogastric reflux: 1(3.4) n (%)
  dyspepsia: 1(3.4) n (%)
  dyspnea: 1(3.4) n (%)
  elevated blood creatine phosphokinase: 1(3.4) n (%)
  elevated blood unconjugated bilirubin: 1(3.4) n (%)
  epigastric pain: 1(3.4) n (%)
  epistaxis: 2(6.9) n (%)
  extraventricular contraction: 1(3.4) n (%)
  eye organ disease (SOC): 2(6.9) n (%)
  eyelid edema: 1(3.4) n (%)
  facial pain: 1(3.4) n (%)
  fatigue: 3(10.3) n (%)
  fever: 2(6.9) n (%)
  fungal skin infection: 1(3.4) n (%)
  gastritis: 1(3.4) n (%)
  gastroesophageal reflux disease: 2(6.9) n (%)
  gastrointestinal hemorrhage: 1(3.4) n (%)
  gastrointestinal system diseases (SOC): 21(72.4) n (%)
  head discomfort: 1(3.4) n (%)
  headache: 14(48.3) n (%)
  heart organ diseases (SOC): 13(44.8) n (%)
  heat and cold intolerance: 1(3.4) n (%)
  hematochezia: 1(3.4) n (%)
  hematuria: 4(13.8) n (%)
  hepatic failure: 2(6.9) n (%)
  hepato-biliary diseases (SOC): 3(10.3) n (%)
  herpes zoster: 4(13.8) n (%)
  herpesvirus infection: 1(3.4) n (%)
  high voltage on ECG: 3(10.3) n (%)
  hypercalcemia: 1(3.4) n (%)
  hyperglycemia: 7(24.1) n (%)
  hyperlipoidemia: 4(13.8) n (%)
  hypermagnesemia: 3(10.3) n (%)
  hypertension: 2(6.9) n (%)
  hypertriglyceridemia: 2(6.9) n (%)
  hyperuricemia: 4(13.8) n (%)
  hypoalbuminemia: 1(3.4) n (%)
  hypocalcemia: 7(24.1) n (%)
  hypochloremia: 4(13.8) n (%)
  hypokalemia: 11(37.9) n (%)
  hypomagnesemia: 4(13.8) n (%)
  hyponatremia: 10(34.5) n (%)
  hypophosphatemia: 13(44.8) n (%)
  hypotension: 2(6.9) n (%)
  increased blood creatinine: 2(6.9) n (%)
  increased lymphocyte count: 1(3.4) n (%)
  increased monocyte count: 13(44.8) n (%)
  increased serum bilirubin: 4(13.8) n (%)
  increased total bile acid: 1(3.4) n (%)
  increased troponin: 1(3.4) n (%)
  increased urobilinogen in the urine: 3(10.3) n (%)
  increased γ-glutamyl transferase: 2(6.9) n (%)
  infections and infestations diseases (SOC): 13(44.8) n (%)
  infectious pneumonia: 1(3.4) n (%)
  insomnia: 1(3.4) n (%)
  kidney and urinary system diseases (SOC): 6(20.7) n (%)
  left ventricular dysfunction: 1(3.4) n (%)
  limb pain: 2(6.9) n (%)
  loss of appetite: 2(6.9) n (%)
  mental disorder (SOC): 1(3.4) n (%)
  metabolic and nutritional diseases (SOC): 23(79.3) n (%)
  muscle weakness: 1(3.4) n (%)
  musculoskeletal discomfort: 1(3.4) n (%)
  nasal congestion: 1(3.4) n (%)
  nausea: 15(51.7) n (%)
  oral hypoesthesia: 2(6.9) n (%)
  oral mucositis: 1(3.4) n (%)
  palpitation: 4(13.8) n (%)
  parageusia: 1(3.4) n (%)
  pericardial effusion: 1(3.4) n (%)
  periodontitis: 1(3.4) n (%)
  peripheral edema: 1(3.4) n (%)
  petechia: 2(6.9) n (%)
  proteinuria: 1(3.4) n (%)
  pruritus: 3(10.3) n (%)
  pulmonary inflammation: 1(3.4) n (%)
  rash: 3(10.3) n (%)
  reduced intake: 10(34.5) n (%)
  renal failure: 1(3.4) n (%)
  respiratory tract infection: 1(3.4) n (%)
  right bundle branch block: 1(3.4) n (%)
  sinus bradycardia: 1(3.4) n (%)
  sinus tachycardia: 7(24.1) n (%)
  skin and subcutaneous tissue diseases (SOC): 10(34.5) n (%)
  skin pain: 1(3.4) n (%)
  skin xerosis: 2(6.9) n (%)
  soft tissue infection: 1(3.4) n (%)
  supraventricular extraventricular contraction: 2(6.9) n (%)
  systemic diseases and various reactions at the administration site (SOC): 19(65.5) n (%)
  tachypnea: 3(10.3) n (%)
  tongue ulcer: 1(3.4) n (%)
  upper respiratory tract bacterial infection: 1(3.4) n (%)
  upper respiratory tract infection: 3(10.3) n (%)
  urinary tract infection: 3(10.3) n (%)
  urine protein detection: 4(13.8) n (%)
  various musculoskeletal and connective tissue diseases (SOC): 7(24.1) n (%)
  various neurological diseases (SOC): 19(65.5) n (%)
  vascular and lymphatic diseases (SOC): 3(10.3) n (%)
  ventricular hypokinesia: 1(3.4) n (%)
  vesicular rash: 1(3.4) n (%)
  vomit: 15(51.7) n (%)
  weakness: 14(48.3) n (%)
[2]; […], second line of this term
  ST segment abnormalities on ECG: 1(3.4) n (%)
  hypermagnesemia: 2(6.9) n (%)
[2]; all doses, N = 29
  Grade ≥3 lymphopenia: 31.0%
  Grade ≥3 thrombocytopenia: 75.9%
